Reference: article PMC2901175 (ACS medicinal chemistry letters, 2010)
Converted amounts (≈) assume the structure as drawn.

Key:
[1] = tested on: VIM-2 expressing bacteria; conditions: cited from earlier work
VIM-2 = conditions: against VIM-2; cited from earlier work
IMP-1 = conditions: cited from earlier work
parental (BL21) E. coli = experiment: Imipenem MIC in parental E. coli; assay type: cell-based; conditions: Escherichia coli, read-out: imipenem MIC
BL21/VIM-2 E. coli = experiment: Imipenem MIC potentiation in VIM-2 transformed E. coli; assay type: cell-based

| Structure (SMILES) | potentiation of ß-lactam antibacterial effects (in words) [1] | Ki (VIM-2) [nM] | activity towards IMP-1 (in words) (IMP-1) | MIC (parental (BL21) E. coli) [µg/mL] | fold increase of imipenem MIC, BL21/VIM-2 relative to parental BL21 (BL21/VIM-2 E. coli) | MIC (BL21/VIM-2 E. coli; Escherichia coli, read-out: imipenem MIC) [µg/mL] |
| --- | --- | --- | --- | --- | --- | --- |
| C#CCCOCc1nn[nH]c1CNS(=O)(=O)c1ccc(I)cc1 [Compound 1, N-((4-((but-3-ynyloxy)methyl)-1H-1,2,3-triazol-5-yl)methyl)-4-iodo-benzenesulfonamide] | did not potentiate | 410 ± 30 | inactive | – | – | – |
| C[C@@H](O)[C@H]1C(=O)N2C(C(=O)O)=C(SCCN=CN)C[C@H]12 [imipenem] | – | – | – | 0.21 (≈ 0.702 µM) | approximately 9 fold | 1.85 |
| O=C(O)c1cc[c]([Hg][Cl])cc1 [pCMB, p-chloromercuribenzoic acid] | synergistic effect | – | – | – | – | – |
